± gives the expanded uncertainty stated by the source.
Test: xn = mol fraction of the nth substance listed
Conditions: 101 kPa, Liquid

CO [methanol] + O
mass density [kg/m3]
Conditions | 283.15 K | 288.15 K | 293.15 K | 298.15 K | 303.15 K | 308.15 K | 313.15 K
x2 = 0.0871 | 814.96 ± 0.21 | 810.44 ± 0.22 | 805.91 ± 0.22 | 801.35 ± 0.22 | 796.78 ± 0.23 | 792.17 ± 0.23 | 787.52 ± 0.23
x2 = 0.1529 | 826.26 ± 0.2 | 821.86 ± 0.21 | 817.44 ± 0.21 | 812.99 ± 0.21 | 808.5 ± 0.22 | 803.98 ± 0.22 | 799.41 ± 0.22
x2 = 0.2395 | 841.8 ± 0.19 | 837.53 ± 0.2 | 833.23 ± 0.2 | 828.9 ± 0.2 | 824.53 ± 0.21 | 820.11 ± 0.21 | 815.64 ± 0.21
x2 = 0.3306 | 859.01 ± 0.18 | 854.89 ± 0.18 | 850.73 ± 0.19 | 846.53 ± 0.19 | 842.28 ± 0.19 | 837.98 ± 0.2 | 833.61 ± 0.2
x2 = 0.4064 | 873.83 ± 0.17 | 869.85 ± 0.17 | 865.81 ± 0.17 | 861.73 ± 0.18 | 857.59 ± 0.18 | 853.4 ± 0.18 | 849.13 ± 0.19
x2 = 0.4788 | 888.32 ± 0.16 | 884.5 ± 0.16 | 880.62 ± 0.16 | 876.68 ± 0.17 | 872.67 ± 0.17 | 868.59 ± 0.17 | 864.45 ± 0.17
x2 = 0.5552 | 904.06 ± 0.14 | 900.44 ± 0.15 | 896.75 ± 0.15 | 893 ± 0.15 | 889.17 ± 0.16 | 885.26 ± 0.16 | 881.28 ± 0.16
x2 = 0.6365 | 921.03 ± 0.13 | 917.69 ± 0.13 | 914.28 ± 0.14 | 910.78 ± 0.14 | 907.2 ± 0.14 | 903.52 ± 0.14 | 899.76 ± 0.15
x2 = 0.7321 | 941.06 ± 0.12 | 938.2 ± 0.12 | 935.24 ± 0.12 | 932.18 ± 0.12 | 929.02 ± 0.13 | 925.74 ± 0.13 | 922.36 ± 0.13
x2 = 0.7901 | 952.73 ± 0.11 | 950.29 ± 0.11 | 947.7 ± 0.11 | 945 ± 0.11 | 942.19 ± 0.12 | 939.27 ± 0.12 | 936.09 ± 0.12
x2 = 0.8807 | 970.64 ± 0.09 | 969.11 ± 0.09 | 967.39 ± 0.1 | 965.47 ± 0.1 | 963.37 ± 0.1 | 961.09 ± 0.1 | 958.65 ± 0.1
x2 = 0.964 | 988.96 ± 0.08 | 988.25 ± 0.08 | 987.25 ± 0.08 | 986 ± 0.08 | 984.5 ± 0.08 | 982.79 ± 0.08 | 980.87 ± 0.09
